Where “and” joins values, the source holds several entries; their conditions need not be identical. Equal entries are not always repeated. Where two headings read alike, the source gives them in different places.
Tests used:
[1] = Bioaccumulation test (growth, uptake, depuration; adapted from OECD 305) with passive dosing; assay type: in vivo, Daphnia magna; details: whole body (homogenate, wet weight); for concentration at 120 h: Daphnia magna, concentration in animal body at end of uptake phase (t = 120 h), read-out: Body burden
Protocol: (§1) Bioaccumulation tests with D. magna were adapted from OECD guideline 305 (for fish).[27] Each compound was tested using 110 animals: 10 for controls and 100 for chemical exposure. The animals, aged 10 days to limit growth dilution and provide sufficient tissue for analysis, were exposed to a single subtoxic concentration of each chemical. The test included three phases: (i) growth, (ii) uptake, and (iii) depuration. A combined chronic toxicity and bioaccumulation test was also conducted in a minimized version (section 2.6).
(§2) Ten days before exposure, 110 juvenile daphnids (<24 h old) were collected from the stock culture and grown in M4 medium. Due to the large number of animals required for this test, the volume of media and amount of food provided to the Daphnia were reduced for experimental feasibility. This was achieved by maintaining a denser population (20 mL medium/daphnid), as well as less food (D. subspicatus equivalent to 0.1 mg C/daphnid/day) compared to the stock culture yet still within the limits allowed by OECD 211. Other dietary supplements (fish food and spirulina) and physical conditions (temperature, light/dark cycle) were the same as the stock culture.
(§3) Before exposure started, 2 L of M4 medium containing D. subspicatus at a density sufficient for 100 daphnids for 5 days (25 mg C L^–1) was dosed with the test substance by shaking with 24 PDMS disks for 72 h. For controls (10 animals), 200 mL of M4 medium containing D. subspicatus ([…]) was equilibrated with 2 disks loaded with pure methanol. Immediately before the start of exposure phase, 10-day old daphnids were transferred to fresh medium for 1 h to clean their guts. Thereafter, 10 control daphnids were placed in 200 mL of pre-equilibrated clean medium with 2 clean PDMS disks, while 100 animals (treatment group) were divided into two beakers, each with 50 animals, 1 L of predosed exposure medium, and 12 loaded disks to begin the 5-day uptake phase.
(§4) Neonates were discarded daily, and animals were sampled at 24 h intervals over 120 h (5 time points, 2 replicates of 5 animals each). Sampled daphnids were transferred to clean medium for 15 min to remove chemicals present on animal surface, dried with lint-free tissue and weighed to determine wet weight. Finally, 5 animals of known mass were combined in each vial and stored at −20 °C until extraction. As passive dosing maintains constant concentrations,[1] medium samples for analysis (with and without biomass) were only taken at the end of the uptake phase.
(§5) 50 animals were first transferred to fresh medium for 15 min to remove exposure solution from their surface, and then placed in a new clean medium for the depuration phase. Animals were sampled at 4 time points (2 replicates of 5 animals each as in the uptake phase) over 69 to 96 h. After sampling, the remaining animals were transferred to fresh medium, and the old medium was collected for analysis. Control animals and their medium were analyzed at the end of both the uptake and depuration phases (5 animals each).
(§6) For quantification of body burdens, 5 daphnids were thawed, homogenized in 5 mL Milli-Q water (IKA T-25 digital Ultra-TURRAX) and extracted twice with 2 mL of hexane. The extracts were combined, dried with Na2SO4, concentrated under a nitrogen stream, and spiked with internal standard.
(§7) The depuration rate constant (k2) was derived by plotting the natural logarithm of CD against time ([h]), with the slope giving k2 (Figure S3).[27] The growth rate constant (kg) was determined from the slope of the regression line in the plot of ln (D. magna wet weight) versus time, and the growth-corrected depuration rate constant (k2g) was calculated using eq 4. [drawing 4] 4
(§8) From k2, the optimal uptake and depuration durations to reach 50% and 95% steady-state were estimated using eqs 5 and 6. [drawing 5] 5 [drawing 6] 6
(§9) The bioaccumulation factor (BAF*) was calculated, even though steady-state was not reached. […]

Daphnia magna = assay: as above; assay type: in vivo; details: for log BAF*L5%: 5-day uptake, steady-state not reached, normalized to 5% lipid assuming 1.5% lipid in daphnids, eq 8; for effects on growth (wet weight) in bioaccumulation test: BCRB 21.6, BNF 4.5, BNT 4.3, DNF 0.1 μg L^–1, vs controls, p < 0.05; for log BCFL5% (BAF*L5%) / log k2 (growth-dilution corrected, k2g): Table S7, this study; for k2g (growth dilution corrected depuration rate constant): eq 4; for t95 (time to reach 95% steady-state): estimated from k2, eq 6; for k2 (depuration rate constant): slope of ln CD vs time
Protocol: as §1, §2, §3, §4, §5, §6, §7, §8, §9

D. magna = assay: PNEC and risk quotient estimation; parameters: species or system Daphnia magna; details: environmental concentration of surrogate (CRB, DBF, DBT) / PNEC
Description: To ensure a precautionary approach, an AF of 100 was applied, which accounts for interspecies variability and uncertainties in extrapolating laboratory findings to real-world conditions.
Environmental concentration (EC) data are obtained from A CRB, B DBF, and C DBT by choosing the highest
concentration that remains below the solubility limit of the respective NSO-PAH, as described in Reference 24.

[2] = Partitioning between methanolic loading solution and aqueous medium (passive dosing); assay type: physicochemical; details: methanolic loading solution vs M4 medium at equilibrium via PDMS disk
Protocol: Polydimethylsiloxane (PDMS) passive dosing disks, each weighing 2 g with a surface area of 19.6 cm^2, were prepared using SYLGARD 184 silicone elastomer kit and cleaned before use. Details of the procedure are given in Section S3 (SI file). PDMS disks were loaded in methanolic solution or suspension of the test compounds (10 mL solution/disk) with constant shaking for 72 h, wiped with a lint-free tissue, and washed with water for 30 min four times to remove methanol.
The time required to reach equilibrium between the PDMS disk and the aqueous medium was determined by conducting 72-h kinetic experiments. Chemicals were dosed into M4 medium in 250 mL Schott bottles (in triplicates) at a ratio of 1 disk/100 mL M4 medium using disks loaded with methanolic solution of a single test substance. For the controls, the disks were loaded with pure methanol. While shaking the bottles at room temperature, five samples were taken at different time points over 72 h and the equilibration time was determined.
Passive dosing enabled successful quantification of exposure concentrations after centrifugation of algal biomass (CW), closely matching freely dissolved concentrations (Cfree) calculated from partition coefficients between methanol and the medium (KMeOH:medium; see Figure S12 and section S6 for details).
Table S5 Partition coefficients between the methanolic loading solutions (CMeOH, t=0, nominal concentration
in methanol at t=0) and the measured equilibrium concentrations of the aqueous medium (Cmedium, eq).
Compound CMeOH, t=0 Measured KMeOH:medium log log KMeOH:medium Calculated
[mg L-1] Cmedium, eq KMeOH:medium (mean ± SD) Cmedium, eq
* The “calculated CMedium, eq” were reported using the average KMeoH:medium and CMeOH, t=0. […]

[3] = cited from earlier work; for SW (water solubility): measured in previous work; for log KOW: n-octanol-water partition coefficient; for log KOC: organic carbon-water partition coefficient
[4] = Table 1; EPA Comptox where available, otherwise EPISuite MPBPVP v1.43 prediction; cited from earlier work
[5] = Table S7, this study, read-out: half-life (converted)
[6] = t50 (time to reach 50% steady-state / depuration half-life), estimated from k2, eq 5

Structure (SMILES) | concentration at 120 h [1] | half-life [1, 5] | half-life [1, 6] | log BAF*L5% (Daphnia magna) | effects on growth (wet weight) in bioaccumulation test (Daphnia magna) | log BCFL5% (BAF*L5%) (Daphnia magna) | log k2 (growth-dilution corrected, k2g) (Daphnia magna) | k2g (growth dilution corrected depuration rate constant) (Daphnia magna) | t95 (time to reach 95% steady-state) (Daphnia magna) | k2 (depuration rate constant) (Daphnia magna) | RQ (EC/PNEC) (D. magna) | log KMeOH:medium (mean ± SD) [2] | SW (water solubility) [3] | log KOW [3] | log KOC [3] | VP (vapor pressure) [4]
c1ccc2c(c1)ccc1[nH]c3ccccc3c12 [BCRB, 7H-benzo[c]carbazole] | 25600 ng/g | 6.23 h | 6 h | 3.60±0.09 L kg^-1 lipid | statistically significant effects on growth | 3.6 | -0.96 h-1 | 0.109 h⁻¹ | 27 h | 0.111 h⁻¹ | 4000 | 4.12±0.06 | 0.80 µg/mL | 5.22 | 4.84 | 4.43x10^-8 mm Hg
c1ccc2c(c1)ccc1oc3ccccc3c12 [BNF, benzo[b]naphtho[1,2-d]furan] | 2580 ng/g | 27.7 h | 28 h | 3.28±0.31 L kg^-1 lipid | statistically significant effects on growth | 3.28 | -1.66 h-1 | 0.022 h⁻¹ | 120 h | 0.025 h⁻¹ | 21111 | 5.26±0.06 | 0.25 µg/mL | 5.6 | 4.98 | 3.36x10^-6 mm Hg
c1ccc2c(c1)ccc1sc3ccccc3c12 [BNT, benzo[b]naphtho[1,2-d]thiophene] | 29400 ng/g | 16.5 h | 17 h | 4.36 L kg^-1 lipid and 4.36±0.43 L kg^-1 lipid | No inhibitory growth effects | 4.36 | -1.39 h-1 | 0.040 h⁻¹ | 71 h | 0.042 h⁻¹ | 3333 | 5.46±0.12 | 0.026 µg/mL | 5.75 | 5.50 | 8.97x10^-7 mm Hg
c1ccc2c(c1)ccc1oc3ccc4ccccc4c3c12 [DNF, dinaphtho[2,1-b:1′,2′-d]furan] | 176 ng/g | 53.7 h | 54 h | 3.77 L kg^-1 lipid and 3.77±0.08 L kg^-1 lipid | No inhibitory growth effects | 3.77 | -1.98 h-1 | 0.0105 h⁻¹ | 232 h | 0.0129 h⁻¹ |  | 5.98±0.14 | 0.0015 µg/mL | 6.89 | 6.61 | 2.15x10^-8 mm Hg

From publication PMC12080252, “Daphnia magna as an Alternative Model for (Simultaneous) Bioaccumulation and Chronic Toxicity Assessment—Controlled Exposure Study Indicates High Hazard of Heterocyclic PAHs” (Environmental Science & Technology, 2025)
